The assay deals with human PBMC. Kind of assay: Interferon α induction in human PBMC (Luminex, Beadlyte Human MultiCytokine kit). Type of assay: cell-based. More on the design: key to IFN-α (Interferon concentration): b: Below lower limit of detection. Conditions: for IFN-α (Interferon concentration) / interferon inducing activity (in words) / EC50: human PBMC; for IFN-α (Interferon concentration): all compounds tested at 1 μM, averages from four donors; for IFN-α (Interferon concentration) / EC50: 24 hr; for interferon inducing activity (in words): 1 μM; for EC50: 10 μM to 10 nM, composited from three donors, read-out: EC50 (concentration at which 50% of the maximal IFN concentration was achieved). Here is the method: Reaction of 8-bromo compound 5 with NaN3 followed by Raney-Ni catalyzed hydrogenation furnished compound 6 in good yield. Acylation of compound 6 with ethylchloroformate led to the ethylcarbamate, compound 27, which was converted to the ureido compound 28 by reaction with methanolic ammonia. All compounds were tested for their ability to induce the production of interferon α in human PBMC compared to compound 4 as a positive control. Human blood samples were obtained from the San Diego Blood Bank. Peripheral blood mononuclear cells (PBMC) were isolated by density-gradient centrifugation over Ficoll-Hypaque (Amersham Pharmacia). Cells were resuspended in RPMI 1640 medium, supplemented with 10% fetal bovine serum (FBS), L-glutamine, and penicillin/streptomycin (RP10; Invitrogen, Carlsbad, Calif.), plated at 10^6 cells/well in 96-well plates, and stimulated with compounds at 1 μM final concentration for 24 hr. at 37° C., 5% CO2. The IFN-α level in the supernatants was measured by Luminex (Austin, Tex.) using the Beadlyte Human MultiCytokine kit (Upstate, Charlottesville, Va.), according to the manufacturer's instructions. Results presented in Table 2 are averages of data composited from four different donors. […] Detailed analytical data for these compounds is as follows:
For this dose response study, cells were treated with the listed compounds at concentrations ranging from 10 μM to 10 nM for 24 hr. The data shown in Table 3 are composited from three different donors, and a non-linear regression curve fit analysis was performed using GraphPad Prism software version 4.0b (San Diego, Calif.) to determine the EC50.

“Also recorded” adds a separate entry of the source.

From patent US8846697B2, “Purine analogs” (The Regents of the University of California, priority 2006, dated 2014) come the findings set out here.

Regarding `COCCOc1nc(N)c2nc(NCc3ccccc3)n(Cc3ccccc3)c2n1` [Compound 17], the “IFN-α (Interferon concentration)” value was “b”.
On to `COCCOc1nc(N)c2nc(NCCCO)n(Cc3ccccc3)c2n1` [Compound 14], for which the “interferon inducing activity (in words)” value is given as “most active”, the EC50 is 3.2 µM and the “IFN-α (Interferon concentration)” value is 113.18 pg/mL. For the same compound, under “listed as hydroxypropyl”, the “interferon inducing activity (in words)” value is listed as “about equally active”.
For the compound `COCCOc1nc(N)c2nc(NCC3CCCCC3)n(Cc3ccccc3)c2n1` [Compound 24], the “IFN-α (Interferon concentration)” value is “b”.
Still for that read-out and setting: the result for `CCCCNc1nc2c(N)nc(OCCOC)nc2n1Cc1ccccc1` [Compound 10] reads 0.73 pg/mL.
Turning to `COCCOc1nc(N)c2nc(NCCN3CCOCC3)n(Cc3ccccc3)c2n1` [Compound 19], the “interferon inducing activity (in words)” value was “most active; also recorded: highest activity”, the EC50 is 0.79 µM and the “IFN-α (Interferon concentration)” value amounted to 110.48 pg/mL. For the same compound, the “EC50 (in words)” value (interferon induction in human PBMC) is on record as “submicromolar range”.
Consider `COCCOc1nc(N)c2nc(NN)n(Cc3ccccc3)c2n1` [Compound 29], for which the “IFN-α (Interferon concentration)” value is 0.21 pg/mL.
In the case of `CCCNc1nc2c(N)nc(OCCOC)nc2n1Cc1ccccc1` [Compound 9], the “IFN-α (Interferon concentration)” value is recorded as 8.80 pg/mL.
As to `COCCOc1nc(N)c2nc(NC(N)=O)n(Cc3ccccc3)c2n1` [Compound 28], the “IFN-α (Interferon concentration)” value is “b”.
For the compound `CCNc1nc2c(N)nc(OCCOC)nc2n1Cc1ccccc1` [Compound 8], the “interferon inducing activity (in words)” value is given as “most active; also recorded: superior to the others”, the EC50 is 4.42 µM and the “IFN-α (Interferon concentration)” value amounted to 80.30 pg/mL.
In the case of `CNc1nc2c(N)nc(OCCOC)nc2n1Cc1ccccc1` [Compound 7], the “IFN-α (Interferon concentration)” value was “b”.
As to `COCCOc1nc(N)c2nc(N)n(Cc3ccccc3)c2n1` [Compound 6], the “interferon inducing activity (in words)” value was “completely removed all interferon inducing activity”, the EC50 was greater than 10 µM and the “IFN-α (Interferon concentration)” value was determined as 35.25 pg/mL.
Regarding `COCCOc1nc(N)c2nc(NCCCN(CCO)CCO)n(Cc3ccccc3)c2n1` [Compound 23], the “IFN-α (Interferon concentration)” value is “b”.
On to `COCCOc1nc(N)c2nc(NCCN(CCO)CCO)n(Cc3ccccc3)c2n1` [Compound 22], for which the “IFN-α (Interferon concentration)” value was “b”.
For `CCN(CC)c1nc2c(N)nc(OCCOC)nc2n1Cc1ccccc1` [Compound 11], the “interferon inducing activity (in words)” value was “activity is lost” and the “IFN-α (Interferon concentration)” value is reported as “b”.
`COCCOc1nc(N)c2nc(NCCO)n(Cc3ccccc3)c2n1` [Compound 12]: the “interferon inducing activity (in words)” value is “most active; also recorded: activity was enhanced somewhat”, the EC50 was 5.33 µM and the “IFN-α (Interferon concentration)” value came to 99.21 pg/mL.
Regarding `COCCOc1nc(N)c2nc(N(CCO)CCO)n(Cc3ccccc3)c2n1` [Compound 13], the “interferon inducing activity (in words)” value is on record as “abrogated activity” and the “IFN-α (Interferon concentration)” value was 0.82 pg/mL.
With `COCCOc1nc(N)c2nc(NCCc3c[nH]c4ccccc34)n(Cc3ccccc3)c2n1` [Compound 26], the “interferon inducing activity (in words)” value is “not active” and the “IFN-α (Interferon concentration)” value is given as “b”.
In the case of `COCCOc1nc(N)c2[nH]c(=O)n(Cc3ccccc3)c2n1` [Compound 4, 9-benzyl-2-methoxyethoxy-8-oxoadenine, reference compound], the EC50 is 0.14 µM and the “IFN-α (Interferon concentration)” value was 418.00 pg/mL.
Consider `COCCNc1nc2c(N)nc(OCCOC)nc2n1Cc1ccccc1` [Compound 21], for which the “IFN-α (Interferon concentration)” value is recorded as “b”.
On to `CCOC(=O)Nc1nc2c(N)nc(OCCOC)nc2n1Cc1ccccc1` [Compound 27], for which the “IFN-α (Interferon concentration)” value is on record as 1.03 pg/mL.
For the compound `COCCOc1nc(N)c2nc(N3CCOCC3)n(Cc3ccccc3)c2n1` [Compound 25], the “interferon inducing activity (in words)” value is “not active” and the “IFN-α (Interferon concentration)” value was 0.41 pg/mL.
As for `COCCOc1nc(N)c2nc(NCCc3ccccc3)n(Cc3ccccc3)c2n1` [Compound 18], the “interferon inducing activity (in words)” value is reported as “not active” and the “IFN-α (Interferon concentration)” value is 1.33 pg/mL.
With `COCCOc1nc(N)c2nc(NCC3CCCO3)n(Cc3ccccc3)c2n1` (stereo not drawn) [Compound 16], the “IFN-α (Interferon concentration)” value is listed as “b”.
Regarding `COCCOc1nc(N)c2nc(NCCCCO)n(Cc3ccccc3)c2n1` [Compound 15], the “interferon inducing activity (in words)” value was “devoid of activity” and the “IFN-α (Interferon concentration)” value is recorded as “b”.
Take `COCCOc1nc(N)c2nc(NCCN3CCCCC3)n(Cc3ccccc3)c2n1` [Compound 20]: the “interferon inducing activity (in words)” value is on record as “not active” and the “IFN-α (Interferon concentration)” value is “b”.
